Laboratory results as given in DBAASP.
Values after ≈ are worked out from the molar mass of the structure shown.

How the values were obtained:
Assay in all cases: ≥ marks a high value that may be exact or a test limit, other limits are often not marked, values filed in µg/mL are converted to µM
[1] = tested on: Pseudomonas aeruginosa PA14
[2] = tested on: Staphylococcus aureus K52
Pseudomonas aeruginosa = tested on: Pseudomonas aeruginosa
Escherichia coli BL21 = tested on: Escherichia coli BL21
[3] = tested on: Enterobacter cloacae beta-12
[4] = tested on: Staphylococcus aureus K35
[5] = tested on: Staphylococcus aureus ATCC 25923
Enterococcus faecium = tested on: Enterococcus faecium
[6] = tested on: Staphylococcus epidermidis ATCC 12228
[7] = tested on: Enterococcus faecalis ATCC 29212
[8] = tested on: Bacillus anthracis UM23-CL2
[9] = tested on: Burkholderia cepacia J2540
[10] = tested on: Xanthomonas axonopodis pv. glycines ISBF 327
[11] = tested on: Pseudomonas aeruginosa ATCC 9027
[12] = tested on: Staphylococcus aureus ATCC 29313
[13] = tested on: Pseudomonas aeruginosa ATCC 27853
[14] = tested on: Staphylococcus aureus ATCC 33591
[15] = tested on: Escherichia coli ATCC 43827
[16] = tested on: Acinetobacter baumannii ATCC BAA-1605
[17] = tested on: Escherichia coli K12 MG1655
[18] = tested on: Staphylococcus aureus 68 HER 1049
[19] = tested on: Staphylococcus aureus ATCC 29213
[20] = tested on: Pseudomonas aeruginosa ATCC 10419
[21] = tested on: Pseudomonas aeruginosa LCGE
[22] = tested on: Pseudomonas aeruginosa LC
[23] = tested on: Pseudomonas aeruginosa LCCI
[24] = tested on: Pseudomonas aeruginosa ATCC 21630
[25] = tested on: Pseudomonas aeruginosa ATCC 21625
[26] = tested on: Pseudomonas aeruginosa LCCE
[27] = tested on: Salmonella enterica subsp. enterica serovar Typhimurium C77-31
[28] = tested on: Escherichia coli ATCC 25922
Bacillus subtilis PS832 = tested on: Bacillus subtilis PS832
Escherichia coli MG1655 = tested on: Escherichia coli MG1655

**Q.** Which MIC [1] does the source give for `CC[C@H](C)[C@H](NC(=O)CNC(=O)[C@H](CO)NC(=O)[C@H](CC(C)C)NC(=O)[C@@H](NC(=O)[C@H](CCCCN)NC(=O)CNC(=O)[C@@H](NC(=O)[C@H](CC(C)C)NC(=O)[C@@H]1CCCN1C(=O)[C@H](CC(C)C)NC(=O)[C@@H](N)Cc1ccccc1)[C@@H](C)CC)C(C)C)C(=O)N[C@@H](CC(C)C)C(N)=O` [FLPLIGKVLSGIL] here?
**A.** ≥ 128 µM

**Q.** And the MIC [2]?
**A.** 4.4 µM (≈ 6.02 µg/mL)

**Q.** And the MIC (Pseudomonas aeruginosa)?
**A.** > 64 µM

**Q.** What about the MIC (Escherichia coli BL21) of the same compound?
**A.** ≥ 64 µM

**Q.** What about the MIC [3] of the same compound?
**A.** ≥ 128 µM

**Q.** What about the MIC [4] of the same compound?
**A.** 4.4 µM (≈ 6.02 µg/mL)

**Q.** What about the MIC [5] of the same compound?
**A.** 5.2 µM (≈ 7.12 µg/mL)

**Q.** And the MIC (Enterococcus faecium)?
**A.** 17.5 µM (≈ 24 µg/mL)

**Q.** And the MIC [6]?
**A.** ≥ 128 µM

**Q.** What about the MIC [7] of the same compound?
**A.** 20.9 µM (≈ 28.6 µg/mL)

**Q.** For `CC[C@H](C)[C@H](NC(=O)CN)C(=O)NCC(=O)N[C@@H](CCCCN)C(=O)N[C@@H](Cc1ccccc1)C(=O)N[C@@H](CC(C)C)C(=O)N[C@@H](Cc1cnc[nH]1)C(=O)N[C@@H](CO)C(=O)N[C@@H](C)C(=O)N[C@@H](CCCCN)C(=O)N[C@@H](CCCCN)C(=O)N[C@@H](Cc1ccccc1)C(=O)N[C@@H](Cc1ccccc1)C(=O)N[C@@H](CCCCN)C(=O)N[C@@H](CCCN=C(N)N)C(=O)N[C@H](C(=O)N[C@H](C(=O)N[C@@H](CCC(N)=O)C(=O)N[C@@H](CCCN=C(N)N)C(=O)N[C@H](C(=O)N[C@@H](CCCCN)C(=O)N[C@@H](CC(=O)O)C(=O)N[C@@H](Cc1ccccc1)C(=O)N[C@@H](CC(C)C)C(=O)N[C@@H](CCCN=C(N)N)C(=O)O)[C@@H](C)CC)C(C)C)[C@@H](C)CC` [GIGKFLHSAKKFFKRIVQRIKDFLR], which MIC [8] is on record?
**A.** ≥ 82.4 µM

**Q.** What about the MIC [9] of the same compound?
**A.** ≥ 82.4 µM

**Q.** `CC[C@H](C)[C@H](NC(=O)[C@H](CCCCN)NC(=O)[C@H](CC(N)=O)NC(=O)[C@@H](NC(=O)[C@@H](NC(=O)[C@H](CCCCN)NC(=O)[C@@H](NC(=O)[C@H](C)NC(=O)[C@@H](NC(=O)[C@H](Cc1cnc[nH]1)NC(=O)CNC(=O)[C@H](C)NC(=O)[C@H](CC(C)C)NC(=O)[C@H](CC(=O)O)NC(=O)[C@H](CCCCN)NC(=O)[C@H](C)NC(=O)[C@H](C)NC(=O)CNC(=O)[C@H](CCCCN)NC(=O)[C@H](CC(C)C)NC(=O)[C@@H](NC(=O)[C@H](CC(=O)O)NC(=O)[C@H](CC(C)C)NC(=O)[C@@H](NC(=O)CN)C(C)C)[C@@H](C)CC)C(C)C)[C@@H](C)O)C(C)C)[C@@H](C)CC)C(N)=O` [GVLDILKGAAKDLAGHVATKVINKI] was tested. Which MIC [10] did it give?
**A.** 25 µM (≈ 63.6 µg/mL)

**Q.** What about the MIC [11] of the same compound?
**A.** > 201 µM

**Q.** What about the MIC [12] of the same compound?
**A.** ≥ 50 µM

**Q.** And the MIC [13]?
**A.** 100 µM (≈ 254 µg/mL)

**Q.** And the MIC [14]?
**A.** ≥ 201 µM

**Q.** And the MIC [15]?
**A.** ≥ 201 µM

**Q.** And the MIC [16]?
**A.** ≥ 50.3 µM

**Q.** Which MIC [17] does the source give for `CC[C@H](C)[C@H](NC(=O)[C@H](CC(C)C)NC(=O)[C@H](CCCN=C(N)N)NC(=O)[C@H](Cc1c[nH]c2ccccc12)NC(=O)CN)C(=O)N[C@@H](CCCCN)C(=O)N[C@@H](CCCCN)C(=O)N[C@H](C(=O)N[C@@H](CC(C)C)C(=O)N[C@@H](CCCN=C(N)N)C(=O)N[C@H](C(=O)N[C@@H](Cc1ccccc1)C(=O)N[C@@H](CCCCN)C(=O)NCC(=O)N[C@@H](CC(C)C)C(=O)O)C(C)C)[C@@H](C)CC` [GWRLIKKILRVFKGL] here?
**A.** 2.19 µM (≈ 4 µg/mL)

**Q.** And the MIC [18]?
**A.** 2.19 µM (≈ 4 µg/mL)

**Q.** How did the MIC [19] turn out when `CC[C@H](C)[C@H](NC(=O)[C@H](CCCCN)NC(=O)[C@H](CCCCN)NC(=O)[C@H](CC(C)C)NC(=O)[C@H](CCCN=C(N)N)NC(=O)[C@H](CCCCN)NC(=O)[C@H](CCCN=C(N)N)NC(=O)[C@H](Cc1c[nH]c2ccccc12)NC(=O)[C@H](CCCCN)NC(=O)[C@H](CCCCN)NC(=O)[C@H](CCCN=C(N)N)NC(=O)[C@H](CC(C)C)NC(=O)[C@H](CCCN=C(N)N)NC(=O)[C@H](CCCN=C(N)N)NC(=O)[C@H](Cc1ccccc1)NC(=O)[C@@H](N)CCCN=C(N)N)C(N)=O` [RFRRLRKKWRKRLKKI] was run?
**A.** 128 µM (≈ 290 µg/mL)

**Q.** What about the MIC [20] of the same compound?
**A.** 4 µM (≈ 9.07 µg/mL)

**Q.** And the MIC [21]?
**A.** 4 µM (≈ 9.07 µg/mL)

**Q.** What about the MIC [22] of the same compound?
**A.** 1 µM (≈ 2.27 µg/mL)

**Q.** What about the MIC [23] of the same compound?
**A.** 2 µM (≈ 4.54 µg/mL)

**Q.** What about the MIC [6] of the same compound?
**A.** 64 µM (≈ 145 µg/mL)

**Q.** And the MIC [24]?
**A.** 4 µM (≈ 9.07 µg/mL)

**Q.** And the MIC [25]?
**A.** 4 µM (≈ 9.07 µg/mL)

**Q.** What about the MIC [26] of the same compound?
**A.** 4 µM (≈ 9.07 µg/mL)

**Q.** And the MIC [27]?
**A.** ≥ 128 µM

**Q.** And the MIC [28]?
**A.** 64 µM (≈ 145 µg/mL)

**Q.** For `CC[C@H](C)[C@H](NC(=O)[C@H](CCCN=C(N)N)NC(=O)[C@H](CCCCN)NC(=O)[C@H](CC(C)C)NC(=O)[C@H](CC(C)C)NC(=O)CNC(=O)[C@H](Cc1cnc[nH]1)NC(=O)[C@@H](NC(=O)[C@@H](N)CCCN=C(N)N)[C@@H](C)O)C(=O)N[C@@H](CCCCN)C(=O)N[C@H](C(=O)N[C@@H](CC(C)C)C(=O)N[C@@H](CC(C)C)C(N)=O)[C@@H](C)O` [RTHGLLKRIKTLL], which MIC (Bacillus subtilis PS832) is on record?
**A.** 4 µM (≈ 6.19 µg/mL)

**Q.** What about the MIC (Escherichia coli MG1655) of the same compound?
**A.** 8 µM (≈ 12.4 µg/mL)
